Among the data in US7842808B2, “Anti-migraine spirocycles” (Bristol-Myers Squibb Company, priority 2002, dated 2010) are IC50 values, retold here.

pIC50: −log10 of the molar value.

In the first experiment the target is T1, CGRP receptor (SK-N-MC cell membranes) (Homo sapiens, UniProt O60894+Q16602).
T1 construct: endogenous in cells; host or cells: SK-N-MC cells (membrane homogenate)
T1 sequence (Q16602 23-461): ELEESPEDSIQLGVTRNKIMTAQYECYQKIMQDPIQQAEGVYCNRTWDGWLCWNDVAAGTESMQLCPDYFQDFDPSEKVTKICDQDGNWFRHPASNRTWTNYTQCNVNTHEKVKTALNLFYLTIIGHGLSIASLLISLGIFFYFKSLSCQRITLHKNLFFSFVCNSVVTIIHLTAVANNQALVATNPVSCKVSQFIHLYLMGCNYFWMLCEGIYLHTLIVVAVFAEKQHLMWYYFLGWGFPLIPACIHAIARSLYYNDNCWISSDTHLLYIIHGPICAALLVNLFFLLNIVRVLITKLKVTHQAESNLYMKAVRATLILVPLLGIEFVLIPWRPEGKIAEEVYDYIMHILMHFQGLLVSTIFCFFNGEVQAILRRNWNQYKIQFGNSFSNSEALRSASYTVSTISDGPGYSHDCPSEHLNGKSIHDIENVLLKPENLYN
T1 sequence (O60894 27-148): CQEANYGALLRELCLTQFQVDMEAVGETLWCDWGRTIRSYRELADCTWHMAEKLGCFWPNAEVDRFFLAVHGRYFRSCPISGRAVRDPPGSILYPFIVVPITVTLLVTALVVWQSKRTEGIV
Kind of experiment: CGRP Binding Assay ([125I]-CGRP radioligand binding, SK-N-MC homogenate).
Details: not given
Here is the method:
Tissue Culture. SK-N-MC cells were grown at 37° C. in 5% CO2 as a monolayer in medium consisting of MEM with Earle's salts and L-glutamine (Gibco) supplemented with 10% fetal bovine serum (Gibco).
Cell Pellets. […] The cells were transferred from plates to polypropylene tubes (16×100 mm) and homogenized using a polytron. Homogenates were centrifuged at 32,000×g for 30 min. The pellets were resuspended in cold hypotonic lysis buffer with 0.1% mammalian protease inhibitor cocktail (Sigma) and assayed for protein concentration. The SK-N-MC homogenate was then aliquoted and stored at −80° C. until needed.
Radioligand Binding Assay. The compounds of invention were solubilized and carried through serial dilutions using 100% DMSO. Aliquots from the compound serial dilutions were further diluted 25 fold into assay buffer (50 mM Tris-Cl pH 7.5, 5 mM MgCl2, 0.005% Triton X-100) and transferred (volume 50 μl) into 96 well assay plates. […] SK-N-MC pellets were thawed, diluted in assay buffer with fresh 0.1% mammalian protease inhibitor cocktail (Sigma), and homogenized again. SK-N-MC homogenate (5 μg/well) was added in a volume of 100 μl. The assay plates were then incubated at room temperature for 2 h. Assays were stopped by addition of excess cold wash buffer (20 mM Tris-Cl pH 7.5, 0.1% BSA) immediately followed by filtration over glass fiber filters (Whatman GF/B) previously soaked in 0.5% PEI. Non-specific binding was defined with 1 μM beta-CGRP. Protein bound radioactivity was determined using a gamma or scintillation counter.
As to `O=C1Nc2ccccc2C2(CCN(C(=O)CC(Cc3ccc4[nH]ncc4c3)C(=O)N3CCC4(CC3)OCCO4)CC2)O1` (racemic) [Example 80, (±)-1-(1,4-Dioxa-8-aza-spiro[4.5]dec-8-yl)-2-(1H-indazol-5-ylmethyl)-4-[1′,2′-dihydro-2′-oxospiro-[4H-3′,1-benzoxazine-4,4′-piperidinyl]-butane-1,4-dione], the pIC50 was 6.00 to 7.00.

Staying with this experiment, now noted: displacement of [125I]-CGRP, SK-N-MC homogenate; read-out: CGRP binding IC50.
For the molecule `CCc1cc(CC(NC(=O)N2CCC(N3Cc4ccccc4NC3=O)CC2)C(=O)OC)cc2cn[nH]c12` (racemic) [Example 44, (±)-3-(7-Ethyl-1H-indazol-5-yl)-2-{[4-(2-oxo-1,4-dihydro-2H-quinazolin-3-yl)-piperidine-1-carbonyl]-amino}-propionic acid methyl ester], the pIC50 was 6.00 to 7.00.

`COC(=O)C(CN1Cc2cn[nH]c2C(C)(C)C1)NC(=O)N1CCC(N2Cc3ccccc3NC2=O)CC1` (racemic) [Example 55, (±)-3-(7,7-Dimethyl-1,4,6,7-tetrahydro-pyrazolo[4,3-c]pyridin-5-yl)-2-{[4-(2-oxo-1,4-dihydro-2H-quinazolin-3-yl)-piperidine-1-carbonyl]-amino}-propionic acid methyl ester]: the pIC50 is 6.00 to 7.00. Consider `O=C(N[C@@H](CC(=O)N1CCC(N2Cc3ccccc3NC2=O)CC1)C(=O)N1CCC(N2CCCCC2)CC1)c1cccs1` [Example 116], for which the pIC50 was 6.00 to 7.00. Regarding `O=C(Nc1ccccc1Oc1ccccc1)N[C@@H](CC(=O)N1CCC(N2Cc3ccccc3NC2=O)CC1)C(=O)N1CCC(N2CCCCC2)CC1` [Example 136], the negative logarithm of the IC50 (pIC50) was 6.00 to 7.00.

For the molecule `Cc1nc(N[C@@H](CC(=O)N2CCC(N3Cc4ccccc4NC3=O)CC2)C(=O)N2CCC(N3CCCCC3)CC2)nc(N)c1[N+](=O)[O-]` [Example 90, (L)-2-(4-Amino-6-methyl-5-nitro-pyrimidin-2-ylamino)-1-[1,4′]bipiperidinyl-1′-yl-4-[4-(2-oxo-1,4-dihydro-2H-quinazolin-3-yl)-piperidin-1-yl]-butane-1,4-dione], the pIC50 is 7.00 to 8.00. Consider `O=C(Nc1c(F)cccc1F)N[C@@H](CC(=O)N1CCC(N2Cc3ccccc3NC2=O)CC1)C(=O)N1CCC(N2CCCCC2)CC1` [Example 163], for which the pIC50 was 6.00 to 7.00. On to `O=C(Nc1ccc(F)cc1F)N[C@@H](CC(=O)N1CCC(N2Cc3ccccc3NC2=O)CC1)C(=O)N1CCC(N2CCCCC2)CC1` [Example 156], for which the pIC50 is 6.00 to 7.00. Still for that read-out and setting: the figure for `O=C(Nc1ccc(-c2ccccc2)cc1)N[C@@H](CC(=O)N1CCC(N2Cc3ccccc3NC2=O)CC1)C(=O)N1CCC(N2CCCCC2)CC1` [Example 144] is 6.00 to 7.00; for `O=C(Cc1ccc(Cl)cc1)N[C@@H](CC(=O)N1CCC(N2Cc3ccccc3NC2=O)CC1)C(=O)N1CCC(N2CCCCC2)CC1` [Example 127] it is 6.00 to 7.00; for `O=C(Nc1ccc2ccccc2c1)N[C@@H](CC(=O)N1CCC(N2Cc3ccccc3NC2=O)CC1)C(=O)N1CCC(N2CCCCC2)CC1` [Example 135] it is 6.00 to 7.00.

`Cc1ccc(NC(=O)N[C@@H](CC(=O)N2CCC(N3Cc4ccccc4NC3=O)CC2)C(=O)N2CCC(N3CCCCC3)CC2)cc1Cl` [Example 186]: the pIC50 is 6.00 to 7.00. Still for that read-out and setting: next, `O=C(Nc1ccccc1F)N[C@@H](CC(=O)N1CCC(N2Cc3ccccc3NC2=O)CC1)C(=O)N1CCC(N2CCCCC2)CC1` [Example 171]: 7.00 to 8.00. Still for that read-out and setting: the figure for `COc1ccc(OC(=O)N[C@@H](CC(=O)N2CCC(N3Cc4ccccc4NC3=O)CC2)C(=O)N2CCC(N3CCCCC3)CC2)cc1` [Example 134] is 6.00 to 7.00; for `O=C(N[C@@H](CC(=O)N1CCC(N2Cc3ccccc3NC2=O)CC1)C(=O)N1CCC(N2CCCCC2)CC1)c1ccc(F)c(F)c1` [Example 102] it is 6.00 to 7.00; for `COC(=O)C(Cc1cc(C)c2[nH]ncc2c1)NC(=O)N1CCC2(CC1)NC(=O)Nc1ccccc12` (centres unmarked) [Example 13, 3-(7-Methyl-1H-indazol-5-yl)-2-[2′,3′-dihydro-2′-oxospiro-(piperidine-4,4′-(1H)-quinazoline)carbonylamino]-propionic acid methyl ester] it is 6.00 to 7.00. Same read-out and setting: the figure for `CCc1ccc(NC(=O)N[C@@H](CC(=O)N2CCC(N3Cc4ccccc4NC3=O)CC2)C(=O)N2CCC(N3CCCCC3)CC2)cc1` [Example 190] is 6.00 to 7.00; for `O=C(Nc1ccc(Br)cc1)N[C@@H](CC(=O)N1CCC(N2Cc3ccccc3NC2=O)CC1)C(=O)N1CCC(N2CCCCC2)CC1` [Example 179] it is 6.00 to 7.00.

For `O=C(Nc1cc(Cl)cc(Cl)c1)N[C@@H](CC(=O)N1CCC(N2Cc3ccccc3NC2=O)CC1)C(=O)N1CCC(N2CCCCC2)CC1` [Example 159], the pIC50 was 7.00 to 8.00. The same measure, in the same setting: next, `CCCCCCCN1CCN(C(=O)C(Cc2ccc3[nH]ncc3c2)NC(=O)N2CCC(N3Cc4ccccc4NC3=O)CC2)CC1` (centres unmarked) [Example 40b]: 7.00 to 8.00; `CCCCC(CC)CN1CCN(C(=O)C(Cc2ccc3[nH]ncc3c2)NC(=O)N2CCC(N3Cc4ccccc4NC3=O)CC2)CC1` (centres unmarked) [Example 40f]: less than 6.00; `O=C(Nc1ccc(F)c(Cl)c1)N[C@@H](CC(=O)N1CCC(N2Cc3ccccc3NC2=O)CC1)C(=O)N1CCC(N2CCCCC2)CC1` [Example 193]: 7.00 to 8.00.

`COC(=O)C(Cc1cc(C)c2[nH]ncc2c1)NC(=O)N1CCC2(CC1)OC(=O)Nc1ccccc12` (centres unmarked) [Example 14, 3-(7-Methyl-1H-indazol-5-yl)-2-(1,2-dihydro-2-oxospiro-4H-3,1-dihydro-benzoxazine-4′4-piperidine-carbonylamino)-propionic acid methyl ester]: the negative logarithm of the IC50 (pIC50) was less than 6.00. Take `Cc1cc(CC(NC(=O)N2CCC(N3Cc4ccccc4NC3=O)CC2)C(=O)O[C@@H](C)c2ccncc2)cc2cn[nH]c12` (stereo partly drawn) [Example 41f, 3-(7-Methyl-1H-indazol-5-yl)-2-{[4-(2-oxo-1,4-dihydro-2H-quinazolin-3-yl)-piperidine-1-carbonyl]-amino}-propionic acid(S)-1-pyridin-4-yl-ethyl ester]: the pIC50 was 7.00 to 8.00.

Consider `Cc1cc(CC(NC(=O)N2CCC(N3Cc4ccccc4NC3=O)CC2)C(=O)OC2CCN(Cc3ccccc3)CC2)cc2cn[nH]c12` (centres unmarked) [Example 41b, 3-(7-Methyl-1H-indazol-5-yl)-2-{[4-(2-oxo-1,4-dihydro-2H-quinazolin-3-yl)-piperidine-1-carbonyl]-amino}-propionic acid 1-benzyl-piperidin-4-yl ester], for which the pIC50 is greater than 8.00.

In the case of `O=C(NC(Cc1ccc(=O)[nH]c1)C(=O)N1CCC(N2CCCCC2)CC1)N1CCC(N2Cc3ccccc3NC2=O)CC1` (racemic) [Example 60, (±)-4-(2-Oxo-1,4-dihydro-2H-quinazolin-3-yl)-piperidine-1-carboxylic acid[2-[1,4′]bipiperidinyl-1′-yl-2-oxo-1-(6-oxo-1,6-dihydro-pyridin-3-ylmethyl)-ethyl]-amide], the pIC50 was 6.00 to 7.00.

With `O=C(Nc1ccc(Cl)cc1C(F)(F)F)N[C@@H](CC(=O)N1CCC(N2Cc3ccccc3NC2=O)CC1)C(=O)N1CCC(N2CCCCC2)CC1` [Example 188], the pIC50 is 6.00 to 7.00. Take `O=C(Nc1cc(Cl)ccc1Cl)N[C@@H](CC(=O)N1CCC(N2Cc3ccccc3NC2=O)CC1)C(=O)N1CCC(N2CCCCC2)CC1` [Example 173]: the pIC50 was 6.00 to 7.00.

As for `CCc1cccc(NC(=O)N[C@@H](CC(=O)N2CCC(N3Cc4ccccc4NC3=O)CC2)C(=O)N2CCC(N3CCCCC3)CC2)c1` [Example 142], the pIC50 was 6.00 to 7.00. On to `Cc1cc(CC(NC(=O)N2CCC3(CC2)CC(=O)Nc2ccccc23)C(=O)N(C)C)cc2cn[nH]c12` (racemic) [Example 33, (±)-[1-Dimethylcarbmoyl-2-(7-methyl-1H-indazol-5-yl)-ethy]1-3′,4′-dihydro-2′-oxospiro-[piperidine-4,4′-(1H)-quinoline]-1-carboxamide], for which the negative logarithm of the IC50 (pIC50) is 6.00 to 7.00. With `Cc1cc(CC(NC(=O)N2CCC3(CC2)OC(=O)Nc2ccccc23)C(=O)NCc2ccncc2)cc2cn[nH]c12` (racemic) [Example 30, (±)-1′,2′-Dihydro-2′-oxospiro-[4H-3′,1-benzoxazine-4,4′-piperidine-1-carboxylic acid {2-(7-methyl-1H-indazol-5-yl)-1-[(pyridin-4-ylmethyl)-carbamoyl]-ethyl}-amide], the negative logarithm of the IC50 (pIC50) was 7.00 to 8.00. As to `O=C(N[C@@H](CC(=O)N1CCC(N2Cc3ccccc3NC2=O)CC1)C(=O)N1CCC(N2CCCCC2)CC1)c1sc2ccccc2c1Cl` [Example 125], the pIC50 is 6.00 to 7.00.

For the molecule `O=C(NC(Cn1ccc(OCc2ccccc2)cc1=O)C(=O)N1CCC(N2CCCCC2)CC1)N1CCC(N2Cc3ccccc3NC2=O)CC1` (racemic) [Example 51, (±)-4-(2-Oxo-1,4-dihydro-2H-quinazolin-3-yl)-piperidine-1-carboxylic acid[1-(4-benzyloxy-2-oxo-2H pyridin-1-ylmethyl)-2-[1,4′]bipiperidinyl-1′-yl-2-oxo-ethyl]-amide], the pIC50 is less than 6.00. Still for that read-out and setting: next, `Cc1ccc(NC(=O)N[C@@H](CC(=O)N2CCC(N3Cc4ccccc4NC3=O)CC2)C(=O)N2CCC(N3CCCCC3)CC2)c(C)c1` [Example 185]: 6.00 to 7.00; `CN(C)/C=C/CN1CCN(C(=O)C(Cc2ccc3[nH]ncc3c2)NC(=O)N2CCC(N3Cc4ccccc4NC3=O)CC2)CC1` (centres unmarked) [Example 40h]: less than 6.00.

By pIC50 is commonly meant the negative decadic logarithm of the IC50, by convention in mol/L.
